The target in this test is KRAS (aa 1-169) G12C, C51S, C80L, C118S (Homo sapiens (Human), UniProt P01116, C118S/C51S/C80L/G12C). Description: Biochemical functional assay: SOS1-mediated nucleotide exchange of GDP-loaded KRAS G12C, binding to GST-cRaf RBD, FRET readout. The following applies: 3 hrs pre-incubation with compound at 24° C., SOS1, GTPyS, inhibition of nucleotide exchange. The gist of the method: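 GDP-loaded His-tagged KRAS construct preincubated with compound 3 h at 24° C in 25 mM HEPES pH7.5, 10 mM MgCl2, 0.01% Triton X-100; SOS1 (aa 564-1049), GTPγS and GST-cRaf RBD added for 3 h, then anti-His Tb cryptate/anti-GST XL665 for 3 h. HTRF 665/620 ratio; IC50 by four-parameter logistic fit.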

The values that follow come from patent US20240166660A1, “KRAS G12C INHIBITORS” (BeiGene Switzerland GmbH, priority 2021, published 2024).

Chain of KRAS (aa 1-169) G12C, C51S, C80L, C118S (P01116 other isoform, or with tags, fused parts or gaps G12C/C51S/C80L/C118S): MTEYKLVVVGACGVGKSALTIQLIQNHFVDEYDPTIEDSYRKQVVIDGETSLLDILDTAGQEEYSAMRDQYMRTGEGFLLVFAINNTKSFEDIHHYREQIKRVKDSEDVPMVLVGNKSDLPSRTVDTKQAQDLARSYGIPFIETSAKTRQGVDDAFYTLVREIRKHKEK

With `C=CC(=O)N1CCN(c2nc(N3CCC(N(C)C)C3)nc3cc(-c4c(Cl)c(C)cc5[nH]ncc45)c4c(c23)OCCC4)CC1` (centres unmarked) [Compound B25, 1-(4-(5-(5-chloro-6-methyl-1H-indazol-4-yl)-8-(3-(dimethylamino)pyrrolidin-1-yl)-3,4-dihydro-2H-pyrano[2,3-f]quinazolin-10-yl)piperazin-1-yl)prop-2-en-1-one], the IC50 was found to be 138 nM.
Regarding `C=CC(=O)N1CCN(c2nc(N3CC(CN(C)C)C3)nc3cc(-c4cccc5cccc(Cl)c45)c4c(c23)OCCC4)CC1` [Compound B26, 1-(4-(5-(8-chloronaphthalen-1-yl)-8-(3-((dimethylamino)methyl)azetidin-1-yl)-3,4-dihydro-2H-pyrano[2,3-f]quinazolin-10-yl)piperazin-1-yl)prop-2-en-1-one], the half-inhibitory concentration (IC50) is 239 nM.
`C=CC(=O)N1CCN(c2nc(OC[C@@H]3C[C@@H](F)CN3C)nc3cc(N4CCCc5ccccc54)c4c(c23)OCCC4)CC1` [Compound B27, 1-(4-(5-(3,4-dihydroquinolin-1(2H)-yl)-8-(((2S,4R)-4-fluoro-1-methylpyrrolidin-2-yl)methoxy)-3,4-dihydro-2H-pyrano[2,3-f]quinazolin-10-yl)piperazin-1-yl)prop-2-en-1-one]: the IC50 stood at 321 nM.
Regarding `C=CC(=O)N1CCN(c2nc(OC[C@@H]3CCCN3C)nc3cc(-c4c(Cl)c(C)cc5[nH]ncc45)c4c(c23)OCC4)CC1` [Compound B28, 1-(4-(4-(5-chloro-6-methyl-1H-indazol-4-yl)-7-(((S)-1-methylpyrrolidin-2-yl)methoxy)-2,3-dihydrofuro[2,3-f]quinazolin-9-yl)piperazin-1-yl)prop-2-en-1-one], the IC50 turned out to be 113 nM.
`C=C(F)C(=O)N1CCN(c2nc(OC[C@@H]3CCCN3C)nc3cc(-c4ccc(F)c5sc(N)nc45)c4c(c23)OCCC4)C[C@@H]1CC#N` [Compound B29, 2-((S)-4-(5-(2-amino-7-fluorobenzo[d]thiazol-4-yl)-8-(((S)-1-methylpyrrolidin-2-yl)methoxy)-3,4-dihydro-2H-pyrano[2,3-f]quinazolin-10-yl)-1-(2-fluoroacryloyl)piperazin-2-yl)acetonitrile]: the IC50 was 4.51 nM.
With `C=C(F)C(=O)N1CCN(c2nc(OC[C@@H]3CCCN3C)nc3cc(-c4c(Cl)c(C)cc5[nH]ncc45)c4c(c23)OCC4)C[C@@H]1CC#N` [Compound B30, 2-((2S)-4-(4-(5-chloro-6-methyl-1H-indazol-4-yl)-7-(((S)-1-methylpyrrolidin-2-yl)methoxy)-2,3-dihydrofuro[2,3-f]quinazolin-9-yl)-1-(2-fluoroacryloyl)piperazin-2-yl)acetonitrile] the figure was 9.6 nM.
With `C=C(F)C(=O)N1CCN(c2nc(OC[C@@H]3CCCN3C)nc3cc(-c4ccccc4F)c4c(c23)OCCC4)C[C@@H]1CC#N` [Compound B31, 2-((S)-1-(2-fluoroacryloyl)-4-(5-(2-fluorophenyl)-8-(((S)-1-methylpyrrolidin-2-yl)methoxy)-3,4-dihydro-2H-pyrano[2,3-f]quinazolin-10-yl)piperazin-2-yl)acetonitrile], the concentration for half-maximal inhibition (IC50) was 984 nM.
For the compound `C=C(F)C(=O)N1CCN(c2nc(OC[C@@H]3CCCN3C)nc3cc(-c4ccccc4C4CC4)c4c(c23)OCCC4)C[C@@H]1CC#N` [Compound B32, 2-((S)-4-(5-(2-cyclopropylphenyl)-8-(((S)-1-methylpyrrolidin-2-yl)methoxy)-3,4-dihydro-2H-pyrano[2,3-f]quinazolin-10-yl)-1-(2-fluoroacryloyl)piperazin-2-yl)acetonitrile], the IC50 was determined as 226 nM.
On to `C=C(F)C(=O)N1CCN(c2nc(OC[C@@H]3CCCN3C)nc3cc(-c4ccccc4C(F)(F)F)c4c(c23)OCCC4)C[C@@H]1CC#N` [Compound B33, 2-((S)-1-(2-fluoroacryloyl)-4-(8-(((S)-1-methylpyrrolidin-2-yl)methoxy)-5-(2-(trifluoromethyl)phenyl)-3,4-dihydro-2H-pyrano[2,3-f]quinazolin-10-yl)piperazin-2-yl)acetonitrile], for which the IC50 was determined as 51 nM.
Take `C=CC(=O)N1CCN(c2nc(OC[C@@H]3CCCN3C)nc3cc(-c4c(Cl)c(C)cc5[nH]ncc45)c4ccoc4c23)CC1` [Compound B34, 1-(4-(4-(5-chloro-6-methyl-1H-indazol-4-yl)-7-(((S)-1-methylpyrrolidin-2-yl)methoxy)furo[2,3-f]quinazolin-9-yl)piperazin-1-yl)prop-2-en-1-one]: the IC50 was 65 nM.
Turning to `C=C(F)C(=O)N1CCN(c2nc(OC[C@@H]3CCCN3C)nc3cc(-c4c(Cl)c(C)cc5[nH]ncc45)c4ccoc4c23)C[C@@H]1CC#N` [Compound B35, 2-((2S)-4-(4-(5-chloro-6-methyl-1H-indazol-4-yl)-7-(((S)-1-methylpyrrolidin-2-yl)methoxy)furo[2,3-f]quinazolin-9-yl)-1-(2-fluoroacryloyl)piperazin-2-yl)acetonitrile], the IC50 came out at 8.4 nM.
Take `C=C(F)C(=O)N1CCN(c2nc(OC[C@@H]3CCCN3C)nc3cc(-c4c(Cl)c(Cl)cc5[nH]ncc45)c4c(c23)OCCC4)C[C@@H]1CC#N` [Compound B36, 2-((2S)-4-(5-(5,6-dichloro-1H-indazol-4-yl)-8-(((S)-1-methylpyrrolidin-2-yl)methoxy)-3,4-dihydro-2H-pyrano[2,3-f]quinazolin-10-yl)-1-(2-fluoroacryloyl)piperazin-2-yl)acetonitrile]: the 50% inhibitory concentration (IC50) turned out to be 47 nM.
As to `C=C(F)C(=O)N1CCN(c2nc(OC[C@@H]3CCCN3C)nc3cc(-c4cccc5cccc(F)c45)c4c(c23)OCCC4)C[C@@H]1CC#N` [Compound B37, 2-((S)-1-(2-fluoroacryloyl)-4-(5-(8-fluoronaphthalen-1-yl)-8-(((S)-1-methylpyrrolidin-2-yl)methoxy)-3,4-dihydro-2H-pyrano[2,3-f]quinazolin-10-yl)piperazin-2-yl)acetonitrile], the concentration for half-maximal inhibition (IC50) is 8 nM.
Regarding `C=C(F)C(=O)N1CCN(c2nc(OC[C@@H]3CCCN3C)nc3cc(-c4c(F)cccc4F)c4ccoc4c23)C[C@@H]1CC#N` [Compound B38, 2-((S)-4-(4-(2,6-difluorophenyl)-7-(((S)-1-methylpyrrolidin-2-yl)methoxy)furo[2,3-f]quinazolin-9-yl)-1-(2-fluoroacryloyl)piperazin-2-yl)acetonitrile], the IC50 was found to be 913 nM.
`C=C(F)C(=O)N1CCN(c2nc(OC[C@@H]3CCCN3C)nc3cc(-c4c(O)cccc4F)c4ccoc4c23)C[C@@H]1CC#N` [Compound B39, 2-((2S)-4-(4-(2-fluoro-6-hydroxyphenyl)-7-(((S)-1-methylpyrrolidin-2-yl)methoxy)furo[2,3-f]quinazolin-9-yl)-1-(2-fluoroacryloyl)piperazin-2-yl)acetonitrile]: the IC50 was found to be 1040 nM.
As to `C=C(F)C(=O)N1CCN(c2nc(OC[C@@H]3CCCN3C)nc3cc(-c4ccccc4C(F)(F)F)c4ccoc4c23)C[C@@H]1CC#N` [Compound B40, 2-((S)-1-(2-fluoroacryloyl)-4-(7-(((S)-1-methylpyrrolidin-2-yl)methoxy)-4-(2-(trifluoromethyl)phenyl)furo[2,3-f]quinazolin-9-yl)piperazin-2-yl)acetonitrile], the IC50 was 14 nM.
On to `C=C(F)C(=O)N1CCN(c2nc(OC[C@@H]3CCCN3C)nc3cc(-c4cccc5cccc(Cl)c45)c4ccoc4c23)C[C@@H]1CC#N` [Compound B41, 2-((S)-4-(4-(8-chloronaphthalen-1-yl)-7-(((S)-1-methylpyrrolidin-2-yl)methoxy)furo[2,3-f]quinazolin-9-yl)-1-(2-fluoroacryloyl)piperazin-2-yl)acetonitrile], for which the IC50 was determined as 3.8 nM.

In general, IC50 refers to the point on the concentration scale where inhibition reaches its midpoint.
